From patent US20090170860A1, “Use of PARP-1 Inhibitors” (PHARMA MAR, S.A., SOCIEDAD UNIPERSONAL, priority 2005, published 2009)
Read-outs that look alike come from different tables or passages of the source.

How the values were obtained:
[1] = test system: PARP-1 +/+ and −/− mouse embryonic fibroblasts (MEFs); assay: MTS cytotoxicity assay in PARP-1 +/+ and −/− MEFs; assay type: cell-based; details: PARP-1 −/− versus +/+ MEFs, 72 hours after treatment
Description: PARP-1 +/+and −/− mouse embryonic fibroblasts (MEFs) were seeded into 96-well plates at a density of 5,000 cells/well. After 24 hours, cells were treated with serially diluted concentrations of ET-743. 72 hours following the initial treatment, an MTS (3-(4,5-dimethylthiazol-2-yl)-5([…])-2-(4-sulfophenyl)-2H-tetrazolium) cytotoxicity assay was performed. Results were plotted as percent cellular viability versus ET-743 or Zalypsis® concentration (FIGS. 1a and 1b, respectively).

[2] = test system: SW620 colon carcinoma cells; assay: MTS cytotoxicity assay, ET-743 with or without PARP inhibitor; assay type: cell-based; details: for IC50: 72 hours, MTS; for increased sensitization of cells to ET-743: SW620, PARP inhibitor (nicotinamide 10 mM or NU1025 100 μM) plus ET-743 versus ET-743 alone
Description: Four hours later, media containing ET-743 and the PARP inhibitor was washed out and replaced with another fixed dose of PARP inhibitor. Finally, 4 hours later, a final fixed dose of PARP inhibitor was added. 72 hours following the initial treatment, an MTS cytotoxicity assay was performed.

PARP = PARP (Homo sapiens, UniProt P09874); details: cited from earlier work
Sequence of PARP (P09874 whole entry): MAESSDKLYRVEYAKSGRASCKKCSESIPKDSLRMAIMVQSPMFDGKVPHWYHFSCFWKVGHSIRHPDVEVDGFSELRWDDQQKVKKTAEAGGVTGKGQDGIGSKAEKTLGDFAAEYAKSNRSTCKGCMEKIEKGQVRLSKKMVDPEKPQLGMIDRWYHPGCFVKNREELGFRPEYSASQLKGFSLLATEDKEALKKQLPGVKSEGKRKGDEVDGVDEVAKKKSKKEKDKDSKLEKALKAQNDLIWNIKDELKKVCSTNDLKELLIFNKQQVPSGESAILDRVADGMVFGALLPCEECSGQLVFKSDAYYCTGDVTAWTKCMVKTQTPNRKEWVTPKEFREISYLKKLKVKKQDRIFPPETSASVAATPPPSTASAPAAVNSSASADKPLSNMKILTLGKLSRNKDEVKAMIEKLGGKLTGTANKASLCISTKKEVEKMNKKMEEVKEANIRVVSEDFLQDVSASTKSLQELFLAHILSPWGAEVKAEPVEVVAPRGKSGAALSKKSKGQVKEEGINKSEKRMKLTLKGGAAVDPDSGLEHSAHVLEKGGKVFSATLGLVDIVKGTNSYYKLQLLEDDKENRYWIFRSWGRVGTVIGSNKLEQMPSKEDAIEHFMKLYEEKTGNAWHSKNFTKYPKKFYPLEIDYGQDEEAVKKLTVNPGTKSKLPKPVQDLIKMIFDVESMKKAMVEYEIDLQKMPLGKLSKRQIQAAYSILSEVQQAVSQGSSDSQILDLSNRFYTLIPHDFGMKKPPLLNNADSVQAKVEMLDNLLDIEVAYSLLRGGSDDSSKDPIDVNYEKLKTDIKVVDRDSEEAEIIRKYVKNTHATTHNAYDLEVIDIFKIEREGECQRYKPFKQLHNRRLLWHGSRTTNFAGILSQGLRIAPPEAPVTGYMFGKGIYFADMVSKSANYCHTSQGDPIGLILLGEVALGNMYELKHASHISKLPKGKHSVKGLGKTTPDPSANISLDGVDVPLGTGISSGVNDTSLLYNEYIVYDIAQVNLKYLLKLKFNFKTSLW

With `COc1cc2c(cc1O)CCN[C@]21CS[C@@H]2c3c(OC(C)=O)c(C)c4c(c3[C@H](COC1=O)N1[C@@H]2[C@H]2c3c(cc(C)c(OC)c3O)C[C@@H]([C@@H]1O)N2C)OCO4` [ET-743, Ecteinascidin-743] the “increase in cellular sensitivity on loss of PARP-1” value [1] was ~30 fold, the IC50 ([2]; Homo sapiens, SW-620, SW620, ET-743 alone, NU1025 experiment, read-out: IC50 ET-743 alone (FIG. 2b)) was 1.8 nM and the IC50 ([2]; Homo sapiens, SW-620, SW620, ET-743 alone, nicotinamide experiment, read-out: IC50 ET-743 alone (FIG. 2a)) was 2 nM. The IC50 ([2]; Homo sapiens, SW-620, SW620, NU1025 100 μM, 2 hour pre-treatment and repeated fixed doses, read-out: IC50 ET-743 in combination with NU1025 (FIG. 2b)) was 0.37 nM and the IC50 ([2]; Homo sapiens, SW-620, SW620, nicotinamide 10 mM, 2 hour pre-treatment and repeated fixed doses, read-out: IC50 ET-743 in combination with nicotinamide (FIG. 2a)) was 0.41 nM.

In the case of `Cc1nc2c(O)cccc2c(=O)[nH]1` [NU1025], the “potency as PARP inhibitor relative to nicotinamide” value (PARP) is listed as “up to 1,000 times”, the “cytotoxicity, PARP inhibitor treatment alone” value ([2]; SW620, NU1025 alone (100 μM), versus untreated cells) is listed as “no increased level of cytotoxicity above the untreated cells” and the “increased sensitization of cells to ET-743” value [2] is listed as 4.8 fold.

For `COc1c(C)cc2c(c1O)[C@@H]1[C@@H]3Cc4c(OC(C)=O)c(C)c5c(c4[C@H](CNC(=O)/C=C/c4cccc(C(F)(F)F)c4)N3[C@@H](O)[C@H](C2)N1C)OCO5` [Zalypsis®], the “increase in cellular sensitivity on loss of PARP-1” value [1] was 110 fold.

For `NC(=O)c1cccnc1` [nicotinamide], the inhibition at 10000 µM ([2]; Homo sapiens, SW-620, SW620, nicotinamide alone (10 mM), read-out: cell death, PARP inhibitor treatment alone) was ~20% and the “increased sensitization of cells to ET-743” value [2] was 4.9 fold.
